This passage reports GI50 and TGI results from PubChem BioAssay (NCI).

Among the test systems are K-562 leukemia; SF-268 CNS; U251 CNS; CAKI-1 renal; NCI-H522 lung; UACC-257 melanoma; SK-MEL-5 melanoma; HCT-15 colon; UACC-62 melanoma; HS 578T breast.
Common to all, as to assay: NCI tumour cell line growth inhibition, 48 h

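Five compound concentrations were applied to cells in 96-well plates for 48 hours; endpoints were derived by simple linear interpolation of the resulting dose-response curve. GI50 = concentration required for 50% inhibition of growth. TGI is the concentration that stops growth completely.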

As to `Cc1c(-c2ccc(C3CCCCC3)cc2)nc2ccc(F)cc2c1C(=O)O`, the GI50 in the experiment on K-562 leukemia is 0.0574 µM; in the experiment with SF-268 CNS it was 0.405 µM; with U251 CNS, 0.0588 µM; in the experiment with CAKI-1 renal it was 0.0815 µM; with NCI-H522 lung it was 0.766 µM; in the experiment on UACC-257 melanoma, 4.79 µM. The GI50 is 0.0799 µM in the experiment on SK-MEL-5 melanoma, 0.0196 µM in the experiment on HCT-15 colon, 0.205 µM in the experiment with UACC-62 melanoma and 34.8 µM in the experiment on HS 578T breast. The TGI with K-562 leukemia, with SF-268 CNS, with U251 CNS, in the experiment with CAKI-1 renal, in the experiment with NCI-H522 lung and with UACC-257 melanoma was over 100 µM in each case. The TGI in the experiment with SK-MEL-5 melanoma, in the experiment on HCT-15 colon, in the experiment with UACC-62 melanoma and in the experiment on HS 578T breast was over 100 µM throughout.

`COc1cc2c(c(OC)c1OC)-c1ccc(O)cc1[C@@H](NC(C)=O)CC2`: the GI50 in the experiment with K-562 leukemia was 0.0376 µM; in the experiment with SF-268 CNS, 0.0641 µM; in the experiment with U251 CNS, 0.0465 µM; in the experiment with CAKI-1 renal, 0.183 µM; with NCI-H522 lung, 0.0242 µM; in the experiment on UACC-257 melanoma it was over 68.3 µM. The GI50 with SK-MEL-5 melanoma is 0.0412 µM; in the experiment on HCT-15 colon, 0.123 µM; with UACC-62 melanoma it was 0.0582 µM; in the experiment with HS 578T breast it was 0.0371 µM. The TGI in the experiment on K-562 leukemia is over 100 µM; with SF-268 CNS, over 29.1 µM; in the experiment on U251 CNS it was over 100 µM; in the experiment on CAKI-1 renal, over 39.8 µM; in the experiment with NCI-H522 lung it was 0.097 µM; in the experiment on UACC-257 melanoma, over 100 µM. In addition, the TGI is 0.195 µM with SK-MEL-5 melanoma, over 100 µM in the experiment on HCT-15 colon and over 100 µM in the experiment with UACC-62 melanoma.

For the compound `CC1=C2CC(C)(C)/C=C\C(=O)/C(C)=C\C3=C[C@H](C)C[C@]3(O2)C1=O`, the TGI amounted to 14.4 µM in the experiment on K-562 leukemia; 18.4 µM in the experiment on SF-268 CNS; 9.98 µM with U251 CNS; 2.42 µM in the experiment with CAKI-1 renal; 0.651 µM with NCI-H522 lung; 4.41 µM with UACC-257 melanoma. The TGI with SK-MEL-5 melanoma was 8.06 µM; in the experiment with HCT-15 colon it was 2.53 µM; in the experiment on UACC-62 melanoma it was 3.37 µM; with HS 578T breast, 22.3 µM.

On to `C[C@@]1(C(=O)O)CCC[C@]2(C)C1CC[C@@]13C[C@@](O)(CC[C@]12O)[C@@]1(CO1)C3` (stereo not given in full), for which the GI50 in the experiment on K-562 leukemia, in the experiment on SF-268 CNS, in the experiment with U251 CNS, in the experiment on CAKI-1 renal, in the experiment with NCI-H522 lung and in the experiment on UACC-257 melanoma was over 100 µM each time. Besides, the GI50 with SK-MEL-5 melanoma, in the experiment on HCT-15 colon, in the experiment with UACC-62 melanoma and in the experiment on HS 578T breast was over 100 µM throughout. Also, the TGI with K-562 leukemia, with SF-268 CNS, in the experiment with U251 CNS, with CAKI-1 renal, in the experiment on NCI-H522 lung and in the experiment with UACC-257 melanoma was over 100 µM in each case. The TGI in the experiment with SK-MEL-5 melanoma, with HCT-15 colon, in the experiment on UACC-62 melanoma and in the experiment on HS 578T breast was over 100 µM throughout.

Regarding `O=c1[nH]c2ccccc2c2nc3ccccc3n12`, the TGI in the experiment on K-562 leukemia was over 100 µM; in the experiment with SF-268 CNS, over 100 µM; in the experiment with U251 CNS, over 100 µM; in the experiment on CAKI-1 renal it was 93.7 µM; with NCI-H522 lung, 28.2 µM; with UACC-257 melanoma it was over 100 µM. Besides, the TGI in the experiment on SK-MEL-5 melanoma, with HCT-15 colon, in the experiment with UACC-62 melanoma and in the experiment on HS 578T breast was over 100 µM throughout.

For the compound `C=C(CN1CCN(c2ccc(C(F)(F)F)cc2)CC1)c1ccc(C(=O)Nc2ccccc2N)cc1`, the GI50 was 0.302 µM in the experiment with K-562 leukemia; 6.78 µM with SF-268 CNS; 6.25 µM with U251 CNS; 6.08 µM with CAKI-1 renal; 1.85 µM with NCI-H522 lung; 2.39 µM with UACC-257 melanoma. Further, the GI50 with SK-MEL-5 melanoma is 4.43 µM; with HCT-15 colon, over 100 µM; with UACC-62 melanoma, 23 µM; in the experiment on HS 578T breast, 22.6 µM. Further, the TGI in the experiment with K-562 leukemia was over 36.5 µM; with SF-268 CNS, over 100 µM; with U251 CNS, 31 µM; in the experiment on CAKI-1 renal it was 44 µM; with NCI-H522 lung, over 100 µM; with UACC-257 melanoma, over 100 µM. Also, the TGI in the experiment on SK-MEL-5 melanoma, with HCT-15 colon, in the experiment with UACC-62 melanoma and with HS 578T breast was over 100 µM each time.

Take `O=C(O)[C@H](Cc1c[nH]c2ccccc12)N1C(=O)c2ccccc2C1=O`: the GI50 with K-562 leukemia was over 100 µM. The TGI in the experiment with K-562 leukemia, with SF-268 CNS, in the experiment with U251 CNS, in the experiment on CAKI-1 renal, with NCI-H522 lung and in the experiment on UACC-257 melanoma was over 100 µM throughout. Moreover, the TGI with SK-MEL-5 melanoma, with HCT-15 colon, in the experiment with UACC-62 melanoma and with HS 578T breast was over 100 µM in each case.

Turning to `NC(N)=NCC1CCCCCCN1` (stereo not given), the TGI in the experiment with K-562 leukemia, with SF-268 CNS, in the experiment on U251 CNS, in the experiment with CAKI-1 renal, in the experiment on NCI-H522 lung and with UACC-257 melanoma was over 100 µM throughout. Further, the TGI with SK-MEL-5 melanoma, with HCT-15 colon, in the experiment on UACC-62 melanoma and with HS 578T breast was over 100 µM in each case.

As to `COc1ccc([N+](=O)[O-])c2c(NCCCN(C)C)ccnc12`, the TGI with K-562 leukemia amounted to 5.73 µM; in the experiment with SF-268 CNS, 28.9 µM; in the experiment on U251 CNS, 23.6 µM; in the experiment with CAKI-1 renal it was 42.9 µM; in the experiment on NCI-H522 lung, 3.34 µM; in the experiment with UACC-257 melanoma, 12 µM. Moreover, the TGI in the experiment with SK-MEL-5 melanoma is 5.22 µM; in the experiment with HCT-15 colon, 4.95 µM; in the experiment on UACC-62 melanoma, 11.4 µM; in the experiment with HS 578T breast, 34.6 µM.
